Legend:
MALAT1 = test: Real-time RT-PCR of MALAT1 RNA expression in BE(2)-C cells; type: cell-based, human; settings: 67μM DMOG, 48 hours, vs vehicle control
From the text: Gene expression in tumor cells was examined by quantitative real-time RT-PCR as described previously. For the analysis of protein expression by immunoblot, cells were lysed, protein extracted and separated by gel electrophoresis. After western transfer, membranes were probed with mouse anti-N-Myc antibody (1:1000) (Santa Cruz Biotech, CA, USA) or rabbit anti-JMJD1A antibody (1:500) (Abcam, Cambridge, MA, USA), followed by horseradish peroxidase-conjugated anti-mouse (1:10000) or anti-rabbit (1:20000) antiserum (Santa Cruz Biotech). Protein bands were visualized with SuperSignal (Pierce, Rockford, IL, USA). The membranes were lastly re-probed with an anti-actin antibody (Sigma, St Louis, MO, USA) as loading controls.

BE(2)-C cells [1] = test: Cell proliferation, Alamar blue assay, BE(2)-C; type: cell-based, human; settings: range of doses of DMOG, 72 hours
Protocol: Cell proliferation was examined with Alamar blue assays. Briefly, cells were plated into 96 well plates, transfected with various siRNAs or treated with different dosages of DMOG. Seventy-two hours later, cells were incubated with Alamar blue (Invitrogen) for 5 hours, and plates were then read on a micro-plate reader at 570/595 nm. Results were calculated according to the optical density absorbance units and expressed as percentage changes in cell numbers.

BE(2)-C cells [2] = test: Cell migration (wound healing) assay with Ibidi Culture Inserts; type: cell-based, human; settings: 67μM DMOG vs vehicle control
Protocol: Ibidi Culture Inserts (DKSH, Sydney, Australia) were placed in the center of 6 well plates. BE(2)-C cells were added into the wells outside the inserts. Sixteen hours later, the inserts were removed to create “wounds”. Photos of the “wounds” were taken under microscope, and the areas of the remaining “wounds” were measured and analyzed with Image J software (National Institutes of Health, USA).

BE(2)-C cells [3] = test: Matrigel cell invasion assay; type: cell-based, human; settings: 67μM DMOG for 20 hours, invasion quantified 22 hours later, vs vehicle control
Protocol: BE(2)-C cells were transfected with siRNA or treated with JMJD1A inhibitors for 20 hours, and then detached and added onto BD Falcon Cell Culture Inserts coated with Matrigel inside BD BioCoat Matrigel Invasion Chambers (Becton Dickinson, Bedford, MA, USA). Cells invaded through Matrigel to the bottom side of the inserts were stained with toluidine blue, photographed under microscope and quantified.

JMJD2A = target: T1, JMJD2A (Homo sapiens, UniProt O75164); test: Histone demethylase inhibition assay, JMJD2A; type: biochemical; settings: in vitro; compared with JMJD1A
T1 sequence (O75164 1-1064): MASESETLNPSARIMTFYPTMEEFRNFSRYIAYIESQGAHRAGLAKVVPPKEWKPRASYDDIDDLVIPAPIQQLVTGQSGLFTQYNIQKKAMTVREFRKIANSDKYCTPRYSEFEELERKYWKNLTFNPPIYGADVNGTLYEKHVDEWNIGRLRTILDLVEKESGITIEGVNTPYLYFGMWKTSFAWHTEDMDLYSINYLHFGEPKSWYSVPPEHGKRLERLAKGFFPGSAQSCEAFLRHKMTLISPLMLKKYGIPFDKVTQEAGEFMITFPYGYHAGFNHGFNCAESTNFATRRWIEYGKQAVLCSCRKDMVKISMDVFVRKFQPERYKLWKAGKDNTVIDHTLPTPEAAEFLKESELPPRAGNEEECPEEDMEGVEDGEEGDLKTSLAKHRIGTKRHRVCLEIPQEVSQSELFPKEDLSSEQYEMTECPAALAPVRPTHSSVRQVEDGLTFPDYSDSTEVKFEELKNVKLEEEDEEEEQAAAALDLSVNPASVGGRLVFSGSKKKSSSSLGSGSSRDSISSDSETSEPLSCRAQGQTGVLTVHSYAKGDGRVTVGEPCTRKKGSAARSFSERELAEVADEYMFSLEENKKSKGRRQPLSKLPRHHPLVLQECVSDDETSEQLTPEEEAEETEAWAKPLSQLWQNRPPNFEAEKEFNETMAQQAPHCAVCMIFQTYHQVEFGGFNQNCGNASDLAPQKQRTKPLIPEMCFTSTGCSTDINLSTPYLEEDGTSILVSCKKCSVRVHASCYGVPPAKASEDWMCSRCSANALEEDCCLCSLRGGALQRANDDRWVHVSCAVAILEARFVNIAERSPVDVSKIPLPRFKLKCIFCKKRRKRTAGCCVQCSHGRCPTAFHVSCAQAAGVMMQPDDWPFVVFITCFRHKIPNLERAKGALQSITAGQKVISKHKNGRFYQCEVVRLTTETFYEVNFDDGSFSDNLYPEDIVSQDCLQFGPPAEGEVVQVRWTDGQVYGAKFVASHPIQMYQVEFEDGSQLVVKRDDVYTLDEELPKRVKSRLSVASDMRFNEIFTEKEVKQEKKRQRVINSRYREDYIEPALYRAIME

JMJD2C = target: T2, JMJD2C (Homo sapiens, UniProt Q9H3R0); test: Histone demethylase inhibition assay, JMJD2C; type: biochemical; settings: in vitro; compared with JMJD1A
T2 sequence (Q9H3R0 1-1056): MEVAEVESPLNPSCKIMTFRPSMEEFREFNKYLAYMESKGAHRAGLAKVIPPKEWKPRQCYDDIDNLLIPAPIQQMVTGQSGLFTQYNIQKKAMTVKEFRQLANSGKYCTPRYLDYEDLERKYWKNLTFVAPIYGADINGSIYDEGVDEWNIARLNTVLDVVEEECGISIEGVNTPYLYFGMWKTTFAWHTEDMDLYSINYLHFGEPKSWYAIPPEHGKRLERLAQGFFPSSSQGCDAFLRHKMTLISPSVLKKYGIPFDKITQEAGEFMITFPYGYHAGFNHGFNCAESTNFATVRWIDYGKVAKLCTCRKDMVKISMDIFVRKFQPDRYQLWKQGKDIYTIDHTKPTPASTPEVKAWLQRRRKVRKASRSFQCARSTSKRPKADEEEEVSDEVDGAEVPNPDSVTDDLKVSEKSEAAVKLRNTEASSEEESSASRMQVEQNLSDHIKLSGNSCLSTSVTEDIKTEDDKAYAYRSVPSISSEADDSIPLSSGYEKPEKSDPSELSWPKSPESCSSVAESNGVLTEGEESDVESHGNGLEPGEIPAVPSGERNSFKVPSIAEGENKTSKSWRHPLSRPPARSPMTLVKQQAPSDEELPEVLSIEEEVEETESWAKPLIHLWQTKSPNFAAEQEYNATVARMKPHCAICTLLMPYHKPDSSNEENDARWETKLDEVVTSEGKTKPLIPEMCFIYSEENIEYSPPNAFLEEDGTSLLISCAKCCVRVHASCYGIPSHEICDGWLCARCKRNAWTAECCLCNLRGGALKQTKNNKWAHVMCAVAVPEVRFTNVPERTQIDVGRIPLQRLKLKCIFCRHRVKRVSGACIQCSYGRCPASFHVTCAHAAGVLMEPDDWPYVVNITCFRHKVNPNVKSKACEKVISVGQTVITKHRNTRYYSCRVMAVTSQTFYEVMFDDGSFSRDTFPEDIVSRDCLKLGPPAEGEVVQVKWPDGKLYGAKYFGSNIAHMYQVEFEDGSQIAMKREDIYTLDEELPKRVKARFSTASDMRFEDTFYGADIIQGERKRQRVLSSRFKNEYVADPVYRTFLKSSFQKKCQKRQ

JARID1A = JARID1A (Homo sapiens, UniProt P29375); test: Formaldehyde dehydrogenase-coupled assay, JARID1A; type: biochemical; settings: in vitro; compared with JMJD1A
Chain of JARID1A (P29375 whole entry): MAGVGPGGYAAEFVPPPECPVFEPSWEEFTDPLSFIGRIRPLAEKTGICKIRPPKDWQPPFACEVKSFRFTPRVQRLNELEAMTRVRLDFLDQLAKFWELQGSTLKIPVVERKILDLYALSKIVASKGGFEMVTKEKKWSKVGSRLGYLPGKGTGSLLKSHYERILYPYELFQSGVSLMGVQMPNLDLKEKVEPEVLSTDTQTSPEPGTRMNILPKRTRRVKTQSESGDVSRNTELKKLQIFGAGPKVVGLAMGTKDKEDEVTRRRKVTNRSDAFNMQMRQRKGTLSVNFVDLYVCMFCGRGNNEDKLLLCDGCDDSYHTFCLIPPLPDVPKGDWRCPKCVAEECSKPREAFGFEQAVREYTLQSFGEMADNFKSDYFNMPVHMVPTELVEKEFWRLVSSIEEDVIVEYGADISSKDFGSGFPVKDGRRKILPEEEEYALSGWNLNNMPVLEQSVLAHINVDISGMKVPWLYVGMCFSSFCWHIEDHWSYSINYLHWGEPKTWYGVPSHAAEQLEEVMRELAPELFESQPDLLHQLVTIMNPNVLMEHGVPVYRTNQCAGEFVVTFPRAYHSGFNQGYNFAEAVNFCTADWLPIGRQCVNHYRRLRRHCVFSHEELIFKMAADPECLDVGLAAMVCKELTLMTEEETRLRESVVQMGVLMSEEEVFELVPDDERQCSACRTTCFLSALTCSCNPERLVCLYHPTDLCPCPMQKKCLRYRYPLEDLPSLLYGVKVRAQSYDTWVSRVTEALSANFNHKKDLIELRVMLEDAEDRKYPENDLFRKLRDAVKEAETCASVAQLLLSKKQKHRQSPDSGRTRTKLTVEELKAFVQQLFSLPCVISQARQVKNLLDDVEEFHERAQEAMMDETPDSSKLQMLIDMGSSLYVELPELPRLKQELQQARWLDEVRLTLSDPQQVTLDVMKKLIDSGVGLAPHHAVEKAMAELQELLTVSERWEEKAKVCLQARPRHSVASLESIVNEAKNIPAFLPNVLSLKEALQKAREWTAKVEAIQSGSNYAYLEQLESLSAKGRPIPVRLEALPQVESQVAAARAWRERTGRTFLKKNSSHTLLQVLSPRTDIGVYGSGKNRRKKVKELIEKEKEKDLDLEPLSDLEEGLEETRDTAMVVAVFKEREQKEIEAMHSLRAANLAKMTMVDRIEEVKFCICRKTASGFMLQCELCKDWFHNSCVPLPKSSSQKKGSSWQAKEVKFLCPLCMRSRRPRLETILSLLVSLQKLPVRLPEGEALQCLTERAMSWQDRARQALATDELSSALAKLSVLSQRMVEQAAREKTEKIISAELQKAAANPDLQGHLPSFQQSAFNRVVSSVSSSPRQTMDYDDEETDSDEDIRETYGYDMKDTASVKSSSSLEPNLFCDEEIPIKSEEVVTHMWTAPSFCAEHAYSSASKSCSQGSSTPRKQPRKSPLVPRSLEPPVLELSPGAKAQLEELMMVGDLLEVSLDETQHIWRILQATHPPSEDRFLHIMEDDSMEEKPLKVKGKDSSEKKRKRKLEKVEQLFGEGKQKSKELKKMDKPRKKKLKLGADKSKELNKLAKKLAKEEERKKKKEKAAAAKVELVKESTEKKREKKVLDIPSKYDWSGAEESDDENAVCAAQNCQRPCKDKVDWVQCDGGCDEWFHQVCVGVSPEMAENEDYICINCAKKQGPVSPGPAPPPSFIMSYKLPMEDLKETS

Row | Compound | MALAT1 gene expression (MALAT1) | Cell proliferation (viable cells, Alamar blue) (BE(2)-C cells [1]) | Increase in area of remaining wounds (BE(2)-C cells [2]; 32 hours after removal of inserts) | Increase in area of remaining wounds (BE(2)-C cells [2]; 48 hours after removal of inserts) | Reduction of cell invasion through Matrigel (BE(2)-C cells [3]) | Inhibition of other histone demethylases (JMJD2A), concentration in words (JMJD2A) | Inhibition of other histone demethylases (JMJD2C), concentration in words (JMJD2C) | Inhibition of other histone demethylases (JARID1A), concentration in words (JARID1A)
1 | COC(=O)CNC(=O)C(=O)OC [DMOG] | reduced | no effect | approximately 47% | ~895% | approximately 52% | – | – | –
2 | O=C(O)CNC(=O)C(=O)O [NOG, N-oxalylglycine] | – | – | – | – | – | much higher concentrations | much higher concentrations | much higher concentrations

Reference: publication PMC4039110, “The histone demethylase JMJD1A induces cell migration and invasion by up-regulating the expression of the long noncoding RNA MALAT1” (Oncotarget, 2014)
